Data set [1] has as its system 3T3-L1. As to the kind of experiment: Cytotoxicity against mouse 3T3-L1 cells assessed as reduction in cell viability by MTT assay. The data set is classed as cell-based.
Data set [2] relates to 3T3-L1. Kind of data set: Hypolipidemic activity in mouse 3T3-L1 preadipocytes assessed as reduction in lipid content at 10 uM by Oil Red O staining based assay relative to control. The data set is classed as functional. More on the design: scale not given: the % may be the effect or the level left.

Turning to `CC(C)=CCC/C(C)=C/Cc1c(O)cc(O)c(C(=O)/C=C/c2ccc(O)cc2)c1O`, the Activity entry is “Non-Toxic” with 3T3-L1 [1] and 67.87% in the data set on 3T3-L1 [2].

For the origin of these results see ChEMBL document CHEMBL4765421, “Synthesis of natural 3'-Prenylchalconaringenin and biological evaluation of ameliorating non-alcoholic fatty liver disease and metabolic syndrome” (Eur J Med Chem, 2020).
